Test results: patent US10947272B2, “BACE1 inhibitor peptides” (HOFFMANN-LA ROCHE INC., priority 2015, dated 2021)
Where a name gives a salt, the structure may show the parent alone. Numbered stars: 1 amine (or outer) side, 2 acyl side, 3 side chain; on linkers, the order of the positions; unused ones are H or OH. Square brackets hold non-standard residues; d marks the D form. Ends that are not written are not given here. Peptide text beside a SMILES is read from it. MetSta(3S,4S) = CSCC[C@H](N[*:1])[C@@H](O)CC(=O)[*:2]; MetSta = statine analogue named MetSta in the name; Sta = CC(C)C[C@H](N)[C@@H](O)CC(=O)O; PEG4 = NCCOCCOCCOCCOCCC(=O)O

These molecules were tested against T1, BACE1 (Homo sapiens, UniProt P56817) (assay: Cellular Aβ-lowering assay (Aβ40 ELISA of culture supernatant)). Conditions: IC 50, dual-site BACE1 inhibitors; HEK293 cells stably transfected with human APP wt (APP695); 18-20 hrs incubation; Aβ40 in supernatant.
T1 construct: Human HEK293 cells which are stably transfected with a vector expressing a cDNA of the human APP wt gene (APP695); endogenous in cells; host or cells: HEK293 (human), stably transfected with human APP695 wt cDNA
Format: cell-based
Method: The compounds were investigated in accordance with the test given hereinafter. Cellular Aβ-Lowering Assay: Human HEK293 cells which are stably transfected with a vector expressing a cDNA of the human APP wt gene (APP695) were used to assess the potency of the compounds in a cellular assay. The cells were seeded in 96-well microtiter plates in cell culture medium (Iscove, plus 10% (v/v) fetal bovine serum, glutamine, penicillin/streptomycin) to about 80% confluence and the compounds were added at a 10× concentration in 1/10 volume of medium without FCS containing 8% DMSO (final concentration of DMSO was kept at 0.8% v/v). After 18-20 hrs incubation at 37° C. and 5% CO2 in a humidified incubator the culture supernatant was harvested for the determination of Aβ40 concentrations. 96 well ELISA plates (e.g., Nunc MaxiSorb) were coated with monoclonal antibody which specifically recognize the C-terminal end of Aβ40 (Brockhaus et al., NeuroReport 9, 1481-1486; 1998). After blocking of non-specific binding sites with e.g. 1% BSA and washing, the culture supernatants were added in suitable dilutions together with a horseradish peroxidase-coupled Aβ detection antibody (e.g., antibody 4G8, Senetek, Maryland Heights, Mo.) and incubated for 5 to 7 hrs. Subsequently the wells of the microtiter plate were washed extensively with Tris-buffered saline containing 0.05% Tween 20 and the assay was developed with tetramethylbenzidine/H2O2 in citric acid buffer. After stopping the reaction with one volume 1 N H2SO4 the reaction was measured in an ELISA reader at 450 nm wavelength. The concentrations of Aβ in the culture supernatants were calculated from a standard curve obtained with known amounts of pure Aβ peptide.

T1 sequence (P56817 46-501): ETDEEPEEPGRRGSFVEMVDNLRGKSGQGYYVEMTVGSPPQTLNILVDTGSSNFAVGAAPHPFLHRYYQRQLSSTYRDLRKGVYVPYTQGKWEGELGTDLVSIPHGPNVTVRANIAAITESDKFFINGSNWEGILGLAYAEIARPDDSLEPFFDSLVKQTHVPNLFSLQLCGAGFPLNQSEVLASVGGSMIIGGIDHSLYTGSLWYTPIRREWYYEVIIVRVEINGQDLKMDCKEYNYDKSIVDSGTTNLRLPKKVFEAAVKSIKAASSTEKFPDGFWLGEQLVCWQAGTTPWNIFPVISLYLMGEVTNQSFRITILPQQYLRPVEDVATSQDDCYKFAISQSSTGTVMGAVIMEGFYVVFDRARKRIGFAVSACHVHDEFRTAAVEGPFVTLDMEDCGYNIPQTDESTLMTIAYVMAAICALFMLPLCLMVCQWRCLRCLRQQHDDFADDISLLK

| Molecule | IC50 [nM] |
| --- | --- |
| CC[C@H](C)[C@H](NC(=O)[C@@H](CCCCN)NC(=O)[C@H](Cc1ccc(O)cc1)NC(=O)[C@@H]1CCCN1C(=O)[C@@H](N)Cc1ccc(O)cc1)C(=O)N1CCC[C@H]1C(=O)N[C@@H](CC(C)C)C(=O)NCC(=O)N[C@H](CCCCN)C(=O)NCC(=O)N[C@@H](CCC(=O)O)C(=O)N[C@H](C(=O)N[C@@H](CC(N)=O)C(=O)N[C@@H](CC(C)C)[C@@H](O)CC(=O)N[C@H](C(=O)N[C@@H](C)C(=O)N[C@@H](CCC(=O)O)C(=O)N1CCC[C@@H]1C(N)=O)C(C)C)C(C)C [Example 33, H-Tyr-Pro-Tyr-DLys-Ile-Pro-Leu-Gly-DLys-Gly-Glu-Val-Asn-Sta-Val-Ala-Glu-DPro-NH2] (H-YPY[dK]IPLG[dK]GEVN[Sta]VAE[dP]-NH2) | 34800 |

Same assay, conditions: active site motifs alone; HEK293 cells stably transfected with human APP wt (APP695); Aβ40 in supernatant; read-out: IC 50

| Molecule | IC50 [nM] |
| --- | --- |
| CSCC[C@H](NC(=O)[C@H](CC(N)=O)NC(=O)[C@@H](NC(=O)[C@@H](N)CCC(=O)O)C(C)C)[C@@H](O)CC(=O)N[C@H](C(=O)N[C@@H](C)C(=O)N[C@@H](CCC(=O)O)C(=O)N[C@H](Cc1ccccc1)C(N)=O)C(C)C [Example A2, Glu-Val-Asn-MetSta-Val-Ala-Glu-DPhe-NH2 × TFA, reference compound] (H-EVN[MetSta(3S,4S)]VAE[dF]-NH2) | > 40000 |

Same assay, conditions: dual-site BACE1 inhibitors; HEK293 cells stably transfected with human APP wt (APP695); 18-20 hrs incubation; Aβ40 in supernatant; read-out: IC 50

| Molecule | IC50 [nM] |
| --- | --- |
| CC(C)C[C@H](NC(=O)[C@@H]1CCCN1C(=O)[C@@H](CCCCN)NC(=O)[C@H](Cc1ccccc1)NC(=O)[C@H](Cc1ccc(O)cc1)NC(=O)[C@@H]1CCCN1C(=O)[C@@H](N)Cc1ccc(O)cc1)C(=O)NCC(=O)N[C@H](CCCCN)C(=O)NCC(=O)N[C@@H](CCC(=O)O)C(=O)N[C@H](C(=O)N[C@@H](CC(N)=O)C(=O)N[C@@H](CC(C)C)[C@@H](O)CC(=O)N[C@H](C(=O)N[C@@H](C)C(=O)N[C@@H](CCC(=O)O)C(=O)N1CCC[C@@H]1C(N)=O)C(C)C)C(C)C [Example 13, Tyr-Pro-Tyr-Phe-DLys-Pro-Leu-Gly-DLys-Gly-Glu-Val-Asn-Sta-Val-Ala-Glu-DPro-NH2 × 3TFA] (H-YPYF[dK]PLG[dK]GEVN[Sta]VAE[dP]-NH2) | > 40000 |
| CC[C@H](C)[C@H](NC(=O)[C@H](Cc1ccccc1)NC(=O)[C@H](Cc1ccc(O)cc1)NC(=O)[C@@H]1CCCN1C(=O)[C@@H](N)Cc1ccc(O)cc1)C(=O)N1CCC[C@H]1C(=O)N[C@@H](CC(C)C)C(=O)NCC(=O)NCC(=O)NCC(=O)N[C@@H](CCC(=O)O)C(=O)N[C@H](C(=O)N[C@@H](CC(N)=O)C(=O)N[C@@H](CC(C)C)[C@@H](O)CC(=O)N[C@H](C(=O)N[C@@H](C)C(=O)N[C@@H](CCC(=O)O)C(=O)N1CCC[C@@H]1C(N)=O)C(C)C)C(C)C [Example 2, Tyr-Pro-Tyr-Phe-Ile-Pro-Leu-Gly-Gly-Gly-Glu-Val-Asn-Sta-Val-Ala-Glu-DPro-NH2 × TFA] | 420 |
| CC[C@H](C)[C@H](NC(=O)[C@H](Cc1ccccc1)NC(=O)[C@H](Cc1ccc(O)cc1)NC(=O)[C@@H](CCCCN)NC(=O)[C@@H](N)Cc1ccc(O)cc1)C(=O)N1CCC[C@H]1C(=O)N[C@@H](CC(C)C)C(=O)NCC(=O)N[C@H](CCCCN)C(=O)NCC(=O)N[C@@H](CCC(=O)O)C(=O)N[C@H](C(=O)N[C@@H](CC(N)=O)C(=O)N[C@@H](CC(C)C)[C@@H](O)CC(=O)N[C@H](C(=O)N[C@@H](C)C(=O)N[C@@H](CCC(=O)O)C(=O)N1CCC[C@@H]1C(N)=O)C(C)C)C(C)C [Example 31, H-Tyr-DLys-Tyr-Phe-Ile-Pro-Leu-Gly-DLys-Gly-Glu-Val-Asn-Sta-Val-Ala-Glu-DPro-NH2] (H-Y[dK]YFIPLG[dK]GEVN[Sta]VAE[dP]-NH2) | > 40000 |
| CC[C@H](C)[C@H](NC(=O)[C@H](Cc1ccccc1)NC(=O)[C@H](CCCNC(=N)N)NC(=O)[C@H](C)NC(=O)CN)C(=O)N1CCC[C@H]1C(=O)N[C@@H](C)C(=O)NCC(=O)N[C@H](CCCCN)C(=O)NCC(=O)N[C@@H](CCC(=O)O)C(=O)N[C@H](C(=O)N[C@@H](CC(N)=O)C(=O)N[C@@H](CC(C)C)[C@@H](O)CC(=O)N[C@H](C(=O)N[C@@H](C)C(=O)N[C@@H](CCC(=O)O)C(=O)N1CCC[C@@H]1C(N)=O)C(C)C)C(C)C [Example 16, Gly-Ala-Arg-Phe-Ile-Pro-Ala-Gly-DLys-Gly-Glu-Val-Asn-Sta-Val-Ala-Glu-DPro-NH2 × 3TFA] (H-GARFIPAG[dK]GEVN[Sta]VAE[dP]-NH2; N-terminus assumed) | 420 |
| CC[C@H](C)[C@H](NC(=O)[C@H](Cc1ccccc1)NC(=O)[C@H](Cc1ccc(O)cc1)NC(=O)[C@@H]1CCCN1C(=O)[C@@H](N)Cc1ccc(O)cc1)C(=O)N[C@H](CCCCN)C(=O)N[C@@H](CC(C)C)C(=O)NCC(=O)N[C@H](CCCCN)C(=O)NCC(=O)N[C@@H](CCC(=O)O)C(=O)N[C@H](C(=O)N[C@@H](CC(N)=O)C(=O)N[C@@H](CC(C)C)[C@@H](O)CC(=O)N[C@H](C(=O)N[C@@H](C)C(=O)N[C@@H](CCC(=O)O)C(=O)N1CCC[C@@H]1C(N)=O)C(C)C)C(C)C [Example 12, Tyr-Pro-Tyr-Phe-Ile-DLys-Leu-Gly-DLys-Gly-Glu-Val-Asn-Sta-Val-Ala-Glu-DPro-NH2 × 3TFA] (H-YPYFI[dK]LG[dK]GEVN[Sta]VAE[dP]-NH2) | > 40000 |

Same assay, conditions: exosite motifs alone; HEK293 cells stably transfected with human APP wt (APP695); Aβ40 in supernatant; read-out: IC 50

| Molecule | IC50 [nM] |
| --- | --- |
| YQTFKPANGS [Example E2, Ac-Tyr-Gln-Thr-Phe-Lys-Pro-Ala-Asn-Gly-Ser-NH2, exosite motif peptide tested alone] | > 40000 |
| CC(=O)N[C@@H](CCC(N)=O)C(=O)N[C@@H](CCC(N)=O)C(=O)N[C@@H](Cc1ccc(O)cc1)C(=O)N1CCC[C@H]1C(=O)N[C@@H](Cc1ccc(O)cc1)C(=O)N[C@@H](Cc1ccccc1)C(=O)N[C@@H](CCCCN)C(=O)N1CCC[C@H]1C(=O)N[C@@H](C)C(=O)N[C@@H](CC(N)=O)C(N)=O [Example E1, Ae-Gln-Gln-Tyr-Pro-Tyr-Phe-Lys-Pro-Ala-Asn-NH2] (Ac-QQYPYFKPAN-NH2) | > 40000 |
| CC[C@H](C)[C@H](NC(=O)[C@H](Cc1ccccc1)NC(=O)[C@H](CCCCN)NC(=O)[C@@H]1CCCN1C(=O)[C@H](Cc1ccc(O)cc1)NC(=O)[C@H](CO)NC(=O)CNC(C)=O)C(=O)N[C@@H](CC(=O)O)C(=O)N[C@@H](C)C(=O)N[C@@H](CC(N)=O)C(N)=O [Example E6, Ac-Gly-Ser-Tyr-Pro-Lys-Phe-Ile-Asp-Ala-Asn-NH2] (Ac-GSYPKFIDAN-NH2) | > 40000 |
| CC[C@H](C)[C@H](NC(=O)[C@H](Cc1ccccc1)NC(=O)[C@H](CCCCN)NC(=O)[C@@H]1CCCN1C(=O)[C@H](Cc1ccc(O)cc1)NC(=O)[C@H](CC(=O)O)NC(=O)CNC(C)=O)C(=O)N[C@@H](CO)C(=O)N[C@@H](C)C(=O)N[C@@H](CC(N)=O)C(N)=O [Example E4, Ac-Gly-Asp-Tyr-Pro-Lys-Phe-Ile-Ser-Ala-Asn-NH2] (Ac-GDYPKFISAN-NH2) | > 40000 |
| CC[C@H](C)[C@H](NC(=O)[C@H](Cc1ccccc1)NC(=O)[C@H](CCCCN)NC(=O)[C@@H]1CCCN1C(=O)[C@H](Cc1ccc(O)cc1)NC(=O)[C@H](CC(=O)O)NC(=O)CNC(C)=O)C(=O)N1CCC[C@H]1C(=O)N[C@@H](C)C(=O)N[C@@H](CO)C(N)=O [Example E5, Ac-Gly-Asp-Tyr-Pro-Lys-Phe-Ile-Pro-Ala-Ser-NH2] (Ac-GDYPKFIPAS-NH2) | > 40000 |

Each molecule was assayed against BACE1 (Asp2, β-secretase, Memapsin-2) in HEK293 cells stably expressing human APP695 (UniProt P56817 46-501, limits assumed) (assay: cell-based or functional assay). Conditions: not given.
Chain of BACE1 (Asp2, β-secretase, Memapsin-2) in HEK293 cells stably expressing human APP695 (P56817 46-501 limits assumed): as the sequence (P56817 46-501) above

| Molecule | IC 50, cellular Aβ-lowering assay (Aβ40 in supernatant of HEK293 cells expressing human APP695) [nM] |
| --- | --- |
| YPYFIP[dK]G[dK]GEVN[Sta]VAE[dP]-NH2 (also: TFA salt (3 TFA)) [Tyr-Pro-Tyr-Phe-Ile-Pro-DLys-Gly-DLys-Gly-Glu-Val-Asn-Sta-Val-Ala-Glu-DPro-NH2 × 3TFA] | 19 |
| YPKFIPLG[dK]GEVN[Sta]VAE[dP]-NH2 (also: TFA salt (3 TFA)) [Tyr-Pro-Lys-Phe-Ile-Pro-Leu-Gly-DLys-Gly-Glu-Val-Asn-Sta-Val-Ala-Glu-DPro-NH2 × 3TFA] | 280 |
| YPYFIPL[PEG4]EVN[MetSta(3S,4S)]VAEP-NH2 (also: TFA salt) [Tyr-Pro-Tyr-Phe-Ile-Pro-Leu-PEG(4)-Glu-Val-Asn-MetSta-Val-Ala-Glu-Pro-NH2 × TFA] | 17 |
| YPYFIPL[PEG4]EVN[MetSta(3S,4S)]VAE[dF]-NH2 (also: TFA salt) [Tyr-Pro-Tyr-Phe-Ile-Pro-Leu-PEG(4)-Glu-Val-Asn-MetSta-Val-Ala-Glu-DPhe-NH2 × TFA] | 430 |
| YPYFIPLGGGEVN[MetSta]VAEP-NH2 (also: TFA salt) [Tyr-Pro-Tyr-Phe-Ile-Pro-Leu-Gly-Gly-Gly-Glu-Val-Asn-MetSta-Val-Ala-Glu-Pro-NH2 × TFA] | 1340 |
